The nature of series [1]: Compound cytotoxicity, XTT-based colorimetric assay. The note with it: human, uninfected MT2 cells, day 4, XTT. The format is cell-based. The method in brief:
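Run under the antiviral-assay protocol but without virus. Viability was read on day 4 and CC50 values were derived from the readout.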

The subject of series [2] is recombinant NL4-3 virus (nef section replaced with Renilla luciferase gene) in MT-2 cells. Briefly: HIV cell culture assay (antiviral activity, luciferase readout). The format is cell-based. The note with it: Renilla, NL43, MT-2 cells infected for 4-5 days with recombinant NL4-3 Renilla luciferase virus. The method in brief: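 Serial compound dilutions tested in MT-2 cells infected for 4-5 days with 293T-derived NL4-3 virus carrying Renilla luciferase in place of part of nef. Antiviral activity quantified as luciferase activity, read with a live-cell substrate.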

Regarding `CN(C(=O)[C@H](Cc1cc(F)cc(F)c1)NC(=O)NS(=O)(=O)N1CCNC(=O)C1)c1ccc2scnc2c1` [CA-151], in series [1], the CC50 at 4 days is over 100000 nM. The EC50 in series [2] was determined as 1070 nM.
On the same counts, the results for `CCNS(=O)(=O)NC(=O)N[C@@H](Cc1cc(F)cc(F)c1)C(=O)N(C)c1ccc2scnc2c1` [CA-124] are over 100000 nM and 110 nM.
On the same counts, the results for `CN(C(=O)[C@H](Cc1cc(F)cc(F)c1)NC(=O)NS(=O)(=O)N1CCc2cccnc21)c1ccc(CC(F)F)cc1` [BB-24] are over 33300 nM and 10 nM.
The corresponding values for `COc1ccc(N(C)C(=O)[C@H](Cc2ccccc2)NC(=O)NS(=O)(=O)Nc2ccc(-c3cnco3)cc2)cc1` [CA-38] are over 100000 nM and 250 nM.
In the case of `CN(C(=O)[C@H](Cc1cc(F)cc(F)c1)NC(=O)NS(=O)(=O)N1CCc2cccnc21)c1ccc2c(c1)ncn2C` [GW-6], in series [1], the CC50 at 4 days was over 25000 nM. The EC50 in series [2] was 630 nM.
With `CN(C(=O)[C@H](Cc1cc(F)cc(F)c1)NC(=O)NS(=O)(=O)N1CCc2ccnnc21)c1ccc2scnc2c1` [VN-17], the CC50 at 4 days in series [1] was over 100000 nM. Besides, in series [2], the 50% effective concentration (EC50) came out at 70 nM.
The corresponding values for `CCOc1ccc(N(CC)C(=O)[C@H](Cc2ccccc2)NC(=O)NS(=O)(=O)n2ccc3ccccc32)cc1` [JB-75] are over 33300 nM and 70 nM.
The compound `CN(C(=O)[C@H](Cc1cc(F)cc(F)c1)NC(=O)NS(=O)(=O)n1ncc2c(Cl)cccc21)c1ccc2scnc2c1` [ZY-19] yielded a CC50 at 4 days in series [1] of over 33300 nM. The EC50 in series [2] stood at 360 nM.
In turn, `CN(C(=O)[C@H](Cc1ccccc1)NC(=O)NS(=O)(=O)N1CCc2cccnc21)c1ccc2scnc2c1` [ZY-2] gave a CC50 at 4 days in series [1] of over 53000 nM. Moreover, the EC50 in series [2] stood at 50 nM.
On the same counts, the results for `CCN(CC)S(=O)(=O)NC(=O)N[C@@H](Cc1cc(F)cc(F)c1)C(=O)N(C)c1ccc2scnc2c1` [VN-21] are over 33300 nM and 20 nM.
On the same counts, the results for `CCOc1ccc(N(CC)C(=O)[C@H](Cc2ccccc2)NC(=O)NS(=O)(=O)N2CCc3cccnc32)cc1` [JB-71] are over 33300 nM and 130 nM.
The corresponding values for `CN(C(=O)[C@H](Cc1cc(F)cc(F)c1)NC(=O)NS(=O)(=O)n1ccc2nccnc21)c1ccc2scnc2c1` [ZY-18] are over 100000 nM and 150 nM.
In turn, `CN(C(=O)[C@H](Cc1cc(F)cc(F)c1)NC(=O)NS(=O)(=O)NCc1ccccn1)c1ccc2scnc2c1` [CA-134] returned a CC50 at 4 days in series [1] of over 100000 nM. Further, the half-maximal effective concentration (EC50) in series [2] came to 430 nM.
On the same counts, the results for `COc1ccc(N(C)C(=O)[C@H](Cc2ccccc2)NC(=O)NS(=O)(=O)N(C)Cc2n[nH]c(=O)[nH]2)cc1` [JB-69] are over 100000 nM and 3690 nM.
On the same counts, the results for `COc1ccc(N(C)C(=O)[C@H](Cc2cc(F)cc(F)c2)NC(=O)NS(=O)(=O)N2CCCCC2)cc1F` [AW-4] are over 100000 nM and 480 nM.
The corresponding values for `CN(C(=O)[C@H](Cc1cc(F)cc(F)c1)NC(=O)NS(=O)(=O)N1CCC(O)CC1)c1ccc2scnc2c1` [CA-155] are over 100000 nM and 200 nM.
For the compound `CN(C(=O)[C@H](Cc1cc(F)cc(F)c1)NC(=O)NS(=O)(=O)NC1CCC1)c1ccc2scnc2c1` [CA-132], in series [1], the cytotoxic concentration (CC50) at 4 days was over 100000 nM. Besides, in series [2], the EC50 came to 50 nM.
The corresponding values for `CN(C(=O)[C@H](Cc1cc(F)cc(F)c1)NC(=O)NS(=O)(=O)N1CCCCC1)c1ccc2scnc2c1` [VN-24] are over 100000 nM and 90 nM.
The corresponding values for `CN(C(=O)[C@H](Cc1cc(F)cc(F)c1)NC(=O)NS(=O)(=O)N1CCCc2cccnc21)c1ccc2scnc2c1` [VN-9] are over 100000 nM and 10 nM.
The corresponding values for `CN(C(=O)[C@H](Cc1cc(F)cc(F)c1)NC(=O)NS(=O)(=O)N1CCc2cccnc21)c1ccc2scnc2c1F` [GW-22] are over 100000 nM and 10 nM.

The record behind these values is US10221129B2, “Inhibitors of human immunodeficiency virus replication” (ViiV HEALTHCARE UK (NO.5) LIMITED, priority 2015, dated 2019).
